Experiment: Tested in vitro for inhibitory concentration against CCRF-CEM human Leukemic lymphoblast by using DHFR as primary target

IC50: 2.6 nM
SMILES: CCC(Cc1cnc2nc(N)nc(N)c2n1)c1ccc(C(=O)N[C@@H](CCC(=O)O)C(=O)O)cc1 (stereo partly specified) [Edatrexate]
